Active and inactive are the calls of the source. No cut-off for these calls is given here.
Tests used:
CREB-binding protein [1] = biological target: T1, CREB-binding protein (Homo sapiens, UniProt Q92793); assay: Binding affinity to human His-tagged CREBBP expressed in Escherichia coli BL21(DE3) cells at 100 uM by SYPRO orange staining based fluorescence thermal shift assay
Target sequence in this assay (Q92793 2-2442 limits assumed): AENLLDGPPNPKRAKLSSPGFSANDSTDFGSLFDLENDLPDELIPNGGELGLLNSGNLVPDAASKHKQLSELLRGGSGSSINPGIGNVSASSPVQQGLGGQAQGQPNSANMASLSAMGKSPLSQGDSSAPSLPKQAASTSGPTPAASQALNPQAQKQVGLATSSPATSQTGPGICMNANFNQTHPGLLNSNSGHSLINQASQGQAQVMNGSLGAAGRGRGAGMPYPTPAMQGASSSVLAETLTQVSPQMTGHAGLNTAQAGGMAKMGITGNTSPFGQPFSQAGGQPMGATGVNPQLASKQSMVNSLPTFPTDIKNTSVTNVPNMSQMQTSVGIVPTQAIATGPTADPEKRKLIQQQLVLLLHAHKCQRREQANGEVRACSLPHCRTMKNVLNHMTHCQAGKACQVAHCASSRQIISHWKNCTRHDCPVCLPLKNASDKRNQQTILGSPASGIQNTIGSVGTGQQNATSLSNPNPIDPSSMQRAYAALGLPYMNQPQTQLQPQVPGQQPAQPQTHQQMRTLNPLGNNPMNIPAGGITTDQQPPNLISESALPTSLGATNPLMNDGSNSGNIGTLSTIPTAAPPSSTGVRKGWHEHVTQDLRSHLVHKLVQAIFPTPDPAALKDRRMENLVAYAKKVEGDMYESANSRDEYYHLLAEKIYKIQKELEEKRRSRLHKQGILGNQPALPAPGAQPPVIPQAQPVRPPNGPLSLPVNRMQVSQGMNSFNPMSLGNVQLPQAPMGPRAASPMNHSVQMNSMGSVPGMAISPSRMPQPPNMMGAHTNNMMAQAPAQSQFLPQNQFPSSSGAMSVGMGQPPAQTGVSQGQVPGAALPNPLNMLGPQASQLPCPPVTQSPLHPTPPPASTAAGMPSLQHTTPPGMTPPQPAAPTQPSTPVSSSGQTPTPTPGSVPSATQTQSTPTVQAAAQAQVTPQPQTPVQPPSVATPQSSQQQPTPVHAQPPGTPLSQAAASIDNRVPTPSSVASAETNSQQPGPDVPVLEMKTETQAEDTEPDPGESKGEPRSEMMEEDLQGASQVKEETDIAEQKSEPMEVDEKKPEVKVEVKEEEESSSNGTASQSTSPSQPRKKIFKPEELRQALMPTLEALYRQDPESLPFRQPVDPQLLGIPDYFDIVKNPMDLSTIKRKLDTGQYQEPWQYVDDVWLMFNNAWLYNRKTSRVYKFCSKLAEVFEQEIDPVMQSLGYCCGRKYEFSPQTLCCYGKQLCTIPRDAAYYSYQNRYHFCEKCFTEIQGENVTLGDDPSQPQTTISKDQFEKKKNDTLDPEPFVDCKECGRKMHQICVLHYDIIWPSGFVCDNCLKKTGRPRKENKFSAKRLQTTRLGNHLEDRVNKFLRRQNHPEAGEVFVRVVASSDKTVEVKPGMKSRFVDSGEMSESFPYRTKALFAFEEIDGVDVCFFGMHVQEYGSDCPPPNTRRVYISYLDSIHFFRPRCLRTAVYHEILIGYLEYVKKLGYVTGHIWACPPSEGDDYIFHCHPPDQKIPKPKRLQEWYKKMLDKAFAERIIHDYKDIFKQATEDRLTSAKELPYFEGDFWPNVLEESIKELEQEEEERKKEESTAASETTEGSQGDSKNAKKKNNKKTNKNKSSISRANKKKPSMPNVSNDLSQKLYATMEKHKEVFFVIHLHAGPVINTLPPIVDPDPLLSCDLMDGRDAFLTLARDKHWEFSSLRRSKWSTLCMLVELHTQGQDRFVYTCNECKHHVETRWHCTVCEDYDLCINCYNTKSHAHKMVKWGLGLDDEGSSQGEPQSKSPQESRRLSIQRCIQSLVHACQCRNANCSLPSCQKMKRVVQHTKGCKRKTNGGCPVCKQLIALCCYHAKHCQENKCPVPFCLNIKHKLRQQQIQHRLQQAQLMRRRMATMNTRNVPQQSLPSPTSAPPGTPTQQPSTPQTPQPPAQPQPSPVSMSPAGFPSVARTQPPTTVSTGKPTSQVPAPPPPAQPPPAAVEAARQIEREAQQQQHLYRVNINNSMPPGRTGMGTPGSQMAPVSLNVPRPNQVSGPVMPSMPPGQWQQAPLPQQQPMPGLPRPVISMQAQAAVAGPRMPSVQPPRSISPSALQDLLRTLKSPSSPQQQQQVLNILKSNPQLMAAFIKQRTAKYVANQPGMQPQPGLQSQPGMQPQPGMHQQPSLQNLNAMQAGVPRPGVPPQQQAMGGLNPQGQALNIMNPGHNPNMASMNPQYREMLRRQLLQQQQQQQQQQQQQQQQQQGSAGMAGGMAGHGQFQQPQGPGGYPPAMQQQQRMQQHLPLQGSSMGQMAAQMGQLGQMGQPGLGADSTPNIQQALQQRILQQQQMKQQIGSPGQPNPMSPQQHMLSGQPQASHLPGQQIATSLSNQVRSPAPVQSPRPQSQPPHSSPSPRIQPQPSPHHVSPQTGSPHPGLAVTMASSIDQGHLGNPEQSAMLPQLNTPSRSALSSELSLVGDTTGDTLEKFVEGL

CREB-binding protein [2] = biological target: T1, CREB-binding protein; assay: Inhibition of human recombinant GST-tagged CREBBP using non acetylated ligand 1 as substrate incubated for 2 hrs by TR-FRET assay
Target sequence in this assay (Q92793 whole entry): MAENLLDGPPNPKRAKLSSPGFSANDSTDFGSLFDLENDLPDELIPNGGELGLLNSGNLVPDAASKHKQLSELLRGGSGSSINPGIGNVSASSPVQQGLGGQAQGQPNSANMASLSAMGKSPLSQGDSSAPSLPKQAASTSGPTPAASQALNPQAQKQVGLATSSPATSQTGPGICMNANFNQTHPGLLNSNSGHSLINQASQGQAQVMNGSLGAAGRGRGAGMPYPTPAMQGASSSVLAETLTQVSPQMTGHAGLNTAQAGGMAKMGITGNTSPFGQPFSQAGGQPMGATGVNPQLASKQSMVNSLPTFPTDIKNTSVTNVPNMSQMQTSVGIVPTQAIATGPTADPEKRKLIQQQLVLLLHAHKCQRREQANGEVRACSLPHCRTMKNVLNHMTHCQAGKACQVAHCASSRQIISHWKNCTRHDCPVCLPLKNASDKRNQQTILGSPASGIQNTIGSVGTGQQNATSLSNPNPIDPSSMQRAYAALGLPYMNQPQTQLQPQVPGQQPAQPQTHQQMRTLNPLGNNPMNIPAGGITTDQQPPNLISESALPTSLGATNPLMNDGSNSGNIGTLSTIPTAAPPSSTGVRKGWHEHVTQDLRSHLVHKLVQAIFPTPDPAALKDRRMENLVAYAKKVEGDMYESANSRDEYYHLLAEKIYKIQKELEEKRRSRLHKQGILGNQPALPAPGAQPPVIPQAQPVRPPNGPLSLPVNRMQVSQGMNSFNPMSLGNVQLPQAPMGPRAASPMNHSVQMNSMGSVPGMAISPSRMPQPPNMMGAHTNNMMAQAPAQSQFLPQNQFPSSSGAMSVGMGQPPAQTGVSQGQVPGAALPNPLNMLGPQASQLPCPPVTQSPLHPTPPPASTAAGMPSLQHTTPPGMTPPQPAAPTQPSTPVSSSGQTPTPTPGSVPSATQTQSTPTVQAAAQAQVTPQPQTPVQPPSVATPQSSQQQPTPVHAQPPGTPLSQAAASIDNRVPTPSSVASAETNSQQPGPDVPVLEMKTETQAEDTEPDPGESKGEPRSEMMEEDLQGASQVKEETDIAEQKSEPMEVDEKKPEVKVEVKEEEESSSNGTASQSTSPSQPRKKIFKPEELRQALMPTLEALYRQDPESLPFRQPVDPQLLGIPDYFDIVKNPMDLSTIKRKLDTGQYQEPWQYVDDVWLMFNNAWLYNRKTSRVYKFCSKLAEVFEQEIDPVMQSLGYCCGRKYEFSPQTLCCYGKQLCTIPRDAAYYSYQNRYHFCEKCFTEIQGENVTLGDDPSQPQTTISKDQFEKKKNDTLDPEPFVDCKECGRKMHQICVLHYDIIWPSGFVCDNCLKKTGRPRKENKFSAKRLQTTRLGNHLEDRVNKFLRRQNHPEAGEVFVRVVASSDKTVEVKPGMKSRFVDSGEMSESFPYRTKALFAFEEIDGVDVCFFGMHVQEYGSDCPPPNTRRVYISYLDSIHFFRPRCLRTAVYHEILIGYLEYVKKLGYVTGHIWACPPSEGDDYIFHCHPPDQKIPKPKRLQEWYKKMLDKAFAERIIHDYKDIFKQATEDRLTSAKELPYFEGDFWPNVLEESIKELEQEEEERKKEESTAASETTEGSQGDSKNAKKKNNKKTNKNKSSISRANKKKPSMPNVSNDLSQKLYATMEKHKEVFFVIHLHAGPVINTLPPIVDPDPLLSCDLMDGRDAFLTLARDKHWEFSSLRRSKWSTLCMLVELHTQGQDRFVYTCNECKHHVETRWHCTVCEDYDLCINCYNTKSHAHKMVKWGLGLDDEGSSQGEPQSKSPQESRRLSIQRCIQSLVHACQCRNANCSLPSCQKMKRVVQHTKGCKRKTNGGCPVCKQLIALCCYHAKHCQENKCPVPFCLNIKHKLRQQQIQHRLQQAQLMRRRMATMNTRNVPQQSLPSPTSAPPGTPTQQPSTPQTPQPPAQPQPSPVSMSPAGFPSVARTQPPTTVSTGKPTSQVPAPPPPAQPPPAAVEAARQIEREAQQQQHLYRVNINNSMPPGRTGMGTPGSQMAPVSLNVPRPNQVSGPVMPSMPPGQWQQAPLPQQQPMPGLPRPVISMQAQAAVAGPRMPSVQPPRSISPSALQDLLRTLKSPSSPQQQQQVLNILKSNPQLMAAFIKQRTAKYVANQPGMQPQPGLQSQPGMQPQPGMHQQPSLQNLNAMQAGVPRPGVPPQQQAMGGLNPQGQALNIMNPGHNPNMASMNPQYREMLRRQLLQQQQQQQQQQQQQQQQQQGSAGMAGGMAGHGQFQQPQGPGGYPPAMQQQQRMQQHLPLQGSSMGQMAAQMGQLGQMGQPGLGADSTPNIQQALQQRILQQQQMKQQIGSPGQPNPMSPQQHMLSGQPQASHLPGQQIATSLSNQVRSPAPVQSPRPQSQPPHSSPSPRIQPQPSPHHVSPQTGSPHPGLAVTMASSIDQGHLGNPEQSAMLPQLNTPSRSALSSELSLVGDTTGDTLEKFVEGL

[3] = biological target: Histone acetyltransferase p300 (Homo sapiens) (UniProt Q09472); assay: Binding affinity to EP300 (unknown origin) at 50 uM by SYPRO orange staining based fluorescence thermal shift assay
CREB-binding protein [4] = biological target: T1, CREB-binding protein; assay: Binding affinity to human His-tagged CREBBP expressed in Escherichia coli BL21(DE3) cells at 50 uM by SYPRO orange staining based fluorescence thermal shift assay
Target sequence in this assay (Q92793 2-2442 limits assumed): as the sequence (Q92793 2-2442 limits assumed) above

CREB-binding protein [5] = biological target: T1, CREB-binding protein; assay: Competitive binding affinity to human His-tagged CREBBP expressed in T7 phage-infected Escherichia coli BL21(DE3) cells at 25 uM incubated for 1 hr by bromoscan assay relative to control
Target sequence in this assay (Q92793 2-2442 limits assumed): as above

ML-2 = assay: (§1) Cytotoxicity against human ML2 cells assessed as growth inhibition after 48 hrs by resazurin assay; type: functional
[6] = biological target: Histone acetyltransferase p300 (Homo sapiens) (UniProt Q09472); assay: Binding affinity to EP300 (unknown origin) at 100 uM by SYPRO orange staining based fluorescence thermal shift assay
HL-60 = assay: Cytotoxicity against human HL60 cells assessed as assessed as growth inhibition after 48 hrs by resazurin assay; type: functional, cell-based
MOLM-13 = assay: (§2) Cytotoxicity against human MOLM13 cells assessed as assessed as growth inhibition after 48 hrs by resazurin assay; type: functional
CREB-binding protein [7] = biological target: T1, CREB-binding protein; assay: Competitive binding affinity to human His-tagged CREBBP expressed in T7 phage-infected Escherichia coli BL21(DE3) cells incubated for 1 hr by bromoscan assay
Target sequence in this assay (Q92793 whole entry): as the sequence (Q92793 whole entry) above

CREB-binding protein [8] = biological target: T1, CREB-binding protein; assay: Competitive binding affinity to human His-tagged CREBBP expressed in T7 phage-infected Escherichia coli BL21(DE3) cells at 50 uM incubated for 1 hr by bromoscan assay relative to control
Target sequence in this assay (Q92793 2-2442 limits assumed): as the sequence (Q92793 2-2442 limits assumed) above

[9] = biological target: T2, Bromodomain-containing protein 2 (Homo sapiens, UniProt P25440); assay: Competitive binding affinity to human BRD2 bromodomain 1 expressed in T7 phage-infected Escherichia coli BL21(DE3) cells incubated for 1 hr by bromoscan assay
[10] = biological target: T3, Bromodomain-containing protein 4 (Homo sapiens, UniProt O60885); assay: Competitive binding affinity to human BRD4 bromodomain 1 expressed in T7 phage-infected Escherichia coli BL21(DE3) cells incubated for 1 hr by bromoscan assay
[11] = biological target: T3, Bromodomain-containing protein 4; assay: Competitive binding affinity to human BRD4 bromodomain 2 expressed in T7 phage-infected Escherichia coli BL21(DE3) cells incubated for 1 hr by bromoscan assay
CREB-binding protein [12] = biological target: T1, CREB-binding protein; assay: Binding affinity to human His-tagged CREBBP expressed in Escherichia coli BL21(DE3) cells by isothermal titration calorimetry
Target sequence in this assay (Q92793 whole entry): as the sequence (Q92793 whole entry) above

[13] = biological target: T2, Bromodomain-containing protein 2; assay: Competitive binding affinity to human BRD2 bromodomain 2 expressed in T7 phage-infected Escherichia coli BL21(DE3) cells incubated for 1 hr by bromoscan assay
[14] = biological target: T3, Bromodomain-containing protein 4; assay: Binding affinity to human BRD4 bromodomain 1 expressed in Escherichia coli BL21(DE3) cells at 100 uM by SYPRO orange staining based fluorescence thermal shift assay
[15] = as §1; type: functional; details: ML-2, 48 h
[16] = as §2; type: functional; details: MOLM-13, 48 h

Row | SMILES | ΔTm (CREB-binding protein [1]) | IC50 (CREB-binding protein [2]) | ΔTm [6] | growth inhibition (GI) (HL-60) | Kd (CREB-binding protein [7]) | other results
1 | CC(=O)c1ccc(F)c(NC(=O)/C=C/C(=O)O)c1 | -0.1 °C | > 100 µM | – | – | – | –
2 | CCOc1ccc(C(C)=O)cc1NC(=O)c1cc(C(=O)O)cc(-c2ccncc2)c1 | – | 3 µM | – | – | – | ΔTm [3]: 3.9 °C; ΔTm (CREB-binding protein [4]): 4.1 °C
3 | COc1ccc(C(C)=O)cc1NC(=O)/C=C/C(=O)O | 1.1 °C | 60 µM | – | – | – | –
4 | CC(=O)c1cccc(NC(=O)Cn2c(=O)c3ccccc3n3nc(C)cc23)c1 | – | – | – | – | – | Activity (CREB-binding protein [5]): 22%
5 | CC(=O)c1ccc(OCC(C)C)c(NC(=O)c2cccc(C(=O)O)c2)c1 | 3.5 °C | – | 3 °C | Active | – | growth inhibition (GI) (ML-2): Active; growth inhibition (GI) (MOLM-13): Active
6 | CC(=O)c1ccc(N2CCOCC2)c(NC(=O)c2cccc(C(=O)O)c2)c1 | 1.4 °C | – | 1.3 °C | – | – | –
7 | CCOc1ccc(C(C)=O)cc1NC(=O)/C=C/C(=O)O | 1.8 °C | – | – | – | 4.7 µM | Activity (CREB-binding protein [8]): 2.5%
8 | CCOc1ccc(C(C)=O)cc1C(=O)Nc1cccc(C(=O)O)c1 | 3.4 °C | – | – | Active | 2.5 µM | growth inhibition (GI) (ML-2): Active; growth inhibition (GI) (MOLM-13): Active
9 | CC(=O)c1ccc(OCc2ccccc2)c(NC(=O)c2cccc(C(=O)O)c2)c1 | 3.3 °C | – | 2.6 °C | – | – | –
10 | CCOc1ccc(C(C)=O)cc1NC(=O)c1cccc(C(=O)OC)c1 | 2.8 °C | 5 µM | – | – | 0.49 µM | –
11 | CCOc1ccc(C(C)=O)cc1NC(=O)c1cccc(S(=O)(=O)Nc2ccccc2)c1 | 0 °C | > 10 µM | 0 °C | – | – | –
12 | CCOc1ccc(C(C)=O)cc1NC(=O)c1cc(C(=O)O)cc(-c2ccoc2)c1 | 5.2 °C | 1 µM | 5.9 °C | Active | 0.17 µM | growth inhibition (GI) (ML-2): Active; Kd [9]: 24 µM; Kd [10]: 9.8 µM; growth inhibition (GI) (MOLM-13): Active; Kd [11]: > 36 µM; Kd (CREB-binding protein [12]): 0.3 µM; Kd [13]: 24 µM; ΔTm [14]: 1.5 °C
13 | CC(=O)c1cccc(NC(=O)/C=C/C(=O)O)c1 | 0.1 °C | 30 µM | – | – | – | –
14 | CC(=O)c1ccc(C2CC2)c(NC(=O)c2cccc(C(=O)O)c2)c1 | 3.1 °C | 15 µM | 3.1 °C | – | – | –
15 | CCCOc1ccc(C(C)=O)cc1NC(=O)c1cccc(C(=O)O)c1 | 3.8 °C | 7.4 µM | 3.4 °C | Active | – | growth inhibition (GI) (ML-2): Active; growth inhibition (GI) (MOLM-13): Active
16 | CC(=O)c1ccc(OCC2CC2)c(NC(=O)c2cccc(C(=O)O)c2)c1 | 3.4 °C | – | 3.6 °C | Active | – | growth inhibition (GI) (ML-2): Active; growth inhibition (GI) (MOLM-13): Active
17 | CCOc1ccc(C(=O)NC)cc1NC(=O)c1cccc(C(=O)O)c1 | 1.1 °C | – | – | – | 37 µM | –
18 | CCOc1ccc(C(C)=O)cc1NC(=O)c1cccc(NS(=O)(=O)c2ccccc2)c1 | 0.5 °C | – | 0.4 °C | – | – | –
19 | CCOc1ccc(C(C)=O)cc1NC(=O)c1cc(COC)cc(C(=O)O)c1 | 5.1 °C | 2 µM | 4.6 °C | Active | 0.53 µM | growth inhibition (GI) (ML-2): Active; Kd [9]: > 50 µM; Kd [10]: 25 µM; growth inhibition (GI) (MOLM-13): Active; Kd [11]: > 50 µM; Kd (CREB-binding protein [12]): 0.8 µM; Kd [13]: > 50 µM; ΔTm [14]: 1.3 °C
20 | CC(=O)c1cccc(NC(=O)c2c(-n3cnnn3)sc(C)c2C)c1 | – | – | – | – | 29 µM | Activity (CREB-binding protein [5]): 2%
21 | CCOc1ccc(C(C)=O)cc1NC(=O)c1cccc(C(=O)O)c1 | 3.8 °C | 8.7 µM | 3.4 °C | Active | 0.67 µM | growth inhibition (GI) (ML-2): Active; Kd [9]: > 50 µM; Kd [10]: > 50 µM; growth inhibition (GI) (MOLM-13): Active; Kd [11]: > 50 µM; Kd (CREB-binding protein [12]): 2 µM; Kd [13]: > 50 µM; ΔTm [14]: 0.4 °C
22 | CCOc1ccc(C(C)=O)cc1NC(=O)c1cc(CO)cc(C(=O)O)c1 | 3.8 °C | 3 µM | 3.7 °C | Active | – | growth inhibition (GI) (ML-2): Active; growth inhibition (GI) (MOLM-13): Active
23 | CC(=O)c1cccc(NC(=O)N2C[C@@H](C)O[C@@H](c3ccccc3)C2)c1 | – | – | – | – | – | Activity (CREB-binding protein [8]): 9.4%
24 | CCOc1ccc(C(C)=O)cc1NC(=O)C1CC1C(=O)O (stereo unspecified) | 1.1 °C | > 100 µM | – | – | – | –
25 | CCOc1ccc(C(C)=O)cc1NC(=O)c1cc(COC2CCCCO2)cc(C(=O)O)c1 (stereo unspecified) | 6 °C | 1 µM | 5.9 °C | Active | 0.37 µM | GI50 [15]: 14.4 µM; GI50 [16]: 5.3 µM; ΔTm [14]: 1.7 °C
26 | CCOc1ccc(C(C)=O)cc1NC(=O)c1cccc(-n2cnnn2)c1 | 3.3 °C | 7.5 µM | 2.6 °C | – | – | –
27 | CC(=O)c1ccc(C)c(NC(=O)/C=C/C(=O)O)c1 | 0.2 °C | > 100 µM | – | – | – | –
28 | CCOc1ccc(C(C)=O)cc1NC(=O)c1ccccc1C(=O)O | 1.9 °C | 64 µM | – | – | – | –

From ChEMBL document CHEMBL3769355, “Fragment-Based Design of Selective Nanomolar Ligands of the CREBBP Bromodomain” (J Med Chem, 2016)
